Consider 26 compounds from patent US12617814B2, “Neuroactive steroids and methods of use thereof” (Sage Therapeutics, LLC, priority 2013, dated 2026).

This assay deals with NMDA receptor (GRIN1/GRIN2A) (Homo sapiens, UniProt Q05586+Q12879). The assay is described as follows: NMDA potentiation, two electrode voltage clamp (TEVC) of Xenopus oocytes expressing NMDA receptor. The format is cell-based. The settings on record: 10 μM compound, 3 μM Glutamate and Glycine. The method, then: NMDA potentiation was assessed using either whole cell patch clamp of mammalian cells which expressed NMDA receptors, or using two-electrode voltage clamp (TEVC) of Xenopus Laevis oocytes expressing NMDA receptors.
NMDA receptor (GRIN1/GRIN2A), sequence (Q12879 23-1464, other chains not shown): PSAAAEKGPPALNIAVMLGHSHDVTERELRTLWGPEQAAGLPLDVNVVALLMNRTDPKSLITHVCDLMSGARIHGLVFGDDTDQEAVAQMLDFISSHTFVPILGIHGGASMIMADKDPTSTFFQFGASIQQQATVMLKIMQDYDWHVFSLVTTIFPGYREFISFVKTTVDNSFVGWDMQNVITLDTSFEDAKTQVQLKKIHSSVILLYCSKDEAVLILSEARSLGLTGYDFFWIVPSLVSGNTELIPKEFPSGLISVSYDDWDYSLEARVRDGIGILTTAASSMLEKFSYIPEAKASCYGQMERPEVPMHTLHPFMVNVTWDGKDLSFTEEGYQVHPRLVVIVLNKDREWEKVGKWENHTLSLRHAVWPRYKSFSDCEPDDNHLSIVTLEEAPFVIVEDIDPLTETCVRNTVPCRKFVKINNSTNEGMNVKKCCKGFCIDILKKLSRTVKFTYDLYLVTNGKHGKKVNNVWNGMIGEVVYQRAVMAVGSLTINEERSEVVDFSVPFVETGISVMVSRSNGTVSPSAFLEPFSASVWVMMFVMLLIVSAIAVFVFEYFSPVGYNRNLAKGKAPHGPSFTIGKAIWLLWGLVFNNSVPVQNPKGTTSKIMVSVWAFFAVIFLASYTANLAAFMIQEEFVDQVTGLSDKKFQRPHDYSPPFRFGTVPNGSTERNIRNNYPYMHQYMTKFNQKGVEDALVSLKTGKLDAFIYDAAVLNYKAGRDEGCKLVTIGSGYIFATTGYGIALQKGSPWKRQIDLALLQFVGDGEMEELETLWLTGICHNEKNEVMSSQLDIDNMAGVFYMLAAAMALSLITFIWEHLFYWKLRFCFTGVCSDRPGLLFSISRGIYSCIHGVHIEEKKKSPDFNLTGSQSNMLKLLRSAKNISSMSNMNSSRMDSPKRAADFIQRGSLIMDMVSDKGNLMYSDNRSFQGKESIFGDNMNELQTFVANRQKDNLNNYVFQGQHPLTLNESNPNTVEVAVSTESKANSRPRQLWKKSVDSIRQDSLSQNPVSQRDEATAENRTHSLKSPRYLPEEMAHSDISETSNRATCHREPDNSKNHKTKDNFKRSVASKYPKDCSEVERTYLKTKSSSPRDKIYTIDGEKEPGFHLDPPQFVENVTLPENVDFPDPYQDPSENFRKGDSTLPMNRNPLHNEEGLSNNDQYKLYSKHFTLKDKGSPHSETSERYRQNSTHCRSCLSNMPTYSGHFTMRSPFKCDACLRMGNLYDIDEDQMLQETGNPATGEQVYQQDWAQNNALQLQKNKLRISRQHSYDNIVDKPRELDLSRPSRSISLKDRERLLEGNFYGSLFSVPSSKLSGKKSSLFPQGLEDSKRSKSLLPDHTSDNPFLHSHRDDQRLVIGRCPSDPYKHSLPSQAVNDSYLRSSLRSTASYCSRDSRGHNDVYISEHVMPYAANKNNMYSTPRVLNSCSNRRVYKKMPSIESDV
The Two Electrode Voltage Clamp (TEVC) technique was used to investigate the effects of compounds (10 μM) on the NMDA receptor (GRIN1/GRIN2A) expressed in Xenopus oocytes. Glutamate/Glycine peak and steady-state currents were recorded from oocytes that expressed the NMDA receptor and the modulatory effects of the test items on these currents were investigated.
Ovaries were harvested from Xenopus Laevis females that had been deeply anesthetized by cooling at 4° C. and immersion in Tricaine methanesulfonate (MS-222 at a concentration of 150 mg/L) in sodium bicarbonate (300 mg/L). Once anesthetized the animal was decapitated and pithed following the rules of animal rights from the Geneva canton. A small piece of ovary was isolated for immediate preparation while the remaining part was placed at 4° C. in a sterile Barth solution containing in mM NaCl 88, KCl 1, NaHCO3 2.4, HEPES 10, MgSO4·7H2O 0.82, Ca(NO3)2·4H2O 0.33, CaCl2·6H2O 0.41, at pH 7.4, and supplemented with 20 μg/ml of kanamycin, 100 unit/ml penicillin and 100 μg/ml streptomycin. All recordings were performed at 18° C. and cells were super-fused with medium containing in mM: NaCl 82.5, KCl 2.5, HEPES 5, CaCl2·2H2O, ·6H2O 1, pH 7.4.
Oocytes were injected with either cDNAs encoding for the human GRIN1 and GRIN2A subunits, using a proprietary automated injection device (Hogg et al., J. Neurosci. Methods, (2008) 169: 65-75) and receptor expression was assessed using electrophysiology at least two days later. The ratio of cDNA injection for GRIN1 and GRIN2A was 1:1. Electrophysiological recordings were made using an automated process equipped with standard TEVC and data were captured and analyzed using a proprietary data acquisition and analysis software running under Matlab (Mathworks Inc.). The membrane potential of the oocytes was maintained at −80 mV throughout the experiments. To explore the effects of proprietary compounds, currents were evoked by applying 3 μM Glutamate and […] Glycine for 10 s. Oocytes were then washed for 90 s before being exposed to the test article at a concentration of 10 μM for 120 s. Following this, 3 μM Glutamate and […] Glycine were immediately reapplied for 10 s. Potentiation of both the peak current and the steady state current was assessed. For statistical analysis values were computed either with Excel (Microsoft) or Matlab (Mathworks Inc.). To obtain mean measurements with standard deviations, all experiments were carried out using at least three cells.
Glutamate was prepared as a concentrated stock solution ([…]) in water and then diluted in the recording medium to obtain the desired test concentration. Glycine was prepared as a stock solution at 1 M in water. Compounds were prepared as stock solution ([…]) in DMSO and then diluted in the recording medium to obtain the desired test concentration.
(Two-electrode voltage clamp is typically applied to oocytes expressing channels or transporters.)
Consider `C[C@H](CC[C@](C)(O)C1CC1)[C@H]1CC[C@H]2[C@@H]3CC[C@H]4C[C@@](C)(O)CC[C@]4(C)[C@H]3CC[C@]12C` [Compound 9-8], for which the activation at 10 µM lay within 10 to 50%. Next, `C#CC(C)(O)CC[C@@H](C)[C@H]1CC[C@H]2[C@@H]3CC=C4C[C@@](C)(O)CC[C@]4(C)[C@H]3CC[C@]12C` (some centres unmarked) [Compound 10-2]: 50 to 100%; `C#C[C@](C)(O)CC[C@@H](C)[C@H]1CC[C@H]2[C@@H]3CC=C4C[C@@](C)(O)CC[C@]4(C)[C@H]3CC[C@]12C` [Compound 10-3]: 10 to 50%. Next, `C#C[C@@](C)(O)CC[C@@H](C)[C@H]1CC[C@H]2[C@@H]3CC=C4C[C@@](C)(O)CC[C@]4(C)[C@H]3CC[C@]12C` [Compound 10-4]: 10 to 50%. Then `C#CC(C)(O)CC[C@@H](C)[C@H]1CC[C@H]2[C@@H]3CC[C@H]4C[C@@](C)(O)CC[C@]4(C)[C@H]3CC[C@]12C` (some centres unmarked) [Compound 10-6], with 50 to 100%. `C=CC(C)(O)CC[C@@H](C)[C@H]1CC[C@H]2[C@@H]3CC[C@H]4C[C@@](C)(O)CC[C@]4(C)[C@H]3CC[C@]12C` (some centres unmarked) [Compound 10-7]: the activation at 10 µM lay in the range of 50 to 100%. Consider `C#C[C@](C)(O)CC[C@@H](C)[C@H]1CC[C@H]2[C@@H]3CC[C@H]4C[C@@](C)(O)CC[C@]4(C)[C@H]3CC[C@]12C` [Compound 10-8], for which the activation at 10 µM fell in the range of 50 to 100%.

Regarding `C#C[C@@](C)(O)CC[C@@H](C)[C@H]1CC[C@H]2[C@@H]3CC[C@H]4C[C@@](C)(O)CC[C@]4(C)[C@H]3CC[C@]12C` [Compound 10-9], the activation at 10 µM lay within 10 to 50%.

In the case of `C=C[C@](C)(O)CC[C@@H](C)[C@H]1CC[C@H]2[C@@H]3CC[C@H]4C[C@@](C)(O)CC[C@]4(C)[C@H]3CC[C@]12C` [Compound 10-10], the activation at 10 µM was 10 to 50%.

As for `C=C[C@@](C)(O)CC[C@@H](C)[C@H]1CC[C@H]2[C@@H]3CC[C@H]4C[C@@](C)(O)CC[C@]4(C)[C@H]3CC[C@]12C` [Compound 10-11], the activation at 10 µM was in the range of 10 to 50%. For `C=C[C@](C)(O)CC[C@@H](C)[C@H]1CC[C@H]2[C@@H]3CC=C4C[C@@](C)(O)CC[C@]4(C)[C@H]3CC[C@]12C` [Compound 10-12A], the activation at 10 µM fell in the range of 10 to 50%. Next, `C=C[C@@](C)(O)CC[C@@H](C)[C@H]1CC[C@H]2[C@@H]3CC=C4C[C@@](C)(O)CC[C@]4(C)[C@H]3CC[C@]12C` [Compound 10-12B]: 10 to 50%. Then `C=CC(C)(O)CC[C@@H](C)[C@H]1CC[C@H]2[C@@H]3CC=C4C[C@@](C)(O)CC[C@]4(C)[C@H]3CC[C@]12C` (some centres unmarked) [Compound 10-12], with 10 to 50%.

Regarding `C[C@H](CCC(C)(O)CCO)[C@H]1CC[C@H]2[C@@H]3CC=C4C[C@@](C)(O)CC[C@]4(C)[C@H]3CC[C@]12C` (some centres unmarked) [Compound 10-13], the activation at 10 µM is 50 to 100%. Next, `COCCC(C)(O)CC[C@@H](C)[C@H]1CC[C@H]2[C@@H]3CC=C4C[C@@](C)(O)CC[C@]4(C)[C@H]3CC[C@]12C` (some centres unmarked) [Compound 10-14]: 50 to 100%; `C[C@H](CC[C@@](C)(O)CCO)[C@H]1CC[C@H]2[C@@H]3CC[C@H]4C[C@@](C)(O)CC[C@]4(C)[C@H]3CC[C@]12C` [Compound 10-16]: 10 to 50%. As to `COCC[C@](C)(O)CC[C@@H](C)[C@H]1CC[C@H]2[C@@H]3CC[C@H]4C[C@@](C)(O)CC[C@]4(C)[C@H]3CC[C@]12C` [Compound 10-17], the activation at 10 µM was over 100%.

As for `C[C@H](CC[C@](C)(O)CCO)[C@H]1CC[C@H]2[C@@H]3CC[C@H]4C[C@@](C)(O)CC[C@]4(C)[C@H]3CC[C@]12C` [Compound 10-18], the activation at 10 µM was in the range of 50 to 100%. Next, `COCC[C@@](C)(O)CC[C@@H](C)[C@H]1CC[C@H]2[C@@H]3CC[C@H]4C[C@@](C)(O)CC[C@]4(C)[C@H]3CC[C@]12C` [Compound 10-19]: 10 to 50%; `C[C@H](CC[C@@](C)(O)CCO)[C@H]1CC[C@H]2[C@@H]3CC=C4C[C@@](C)(O)CC[C@]4(C)[C@H]3CC[C@]12C` [Compound 10-20]: 10 to 50%; `C[C@H](CC[C@](C)(O)CCO)[C@H]1CC[C@H]2[C@@H]3CC=C4C[C@@](C)(O)CC[C@]4(C)[C@H]3CC[C@]12C` [Compound 10-21]: 10 to 50%.

Consider `COCC[C@](C)(O)CC[C@@H](C)[C@H]1CC[C@H]2[C@@H]3CC=C4C[C@@](C)(O)CC[C@]4(C)[C@H]3CC[C@]12C` [Compound 10-22], for which the activation at 10 µM was in the range of 50 to 100%.

Turning to `COCC[C@@](C)(O)CC[C@@H](C)[C@H]1CC[C@H]2[C@@H]3CC=C4C[C@@](C)(O)CC[C@]4(C)[C@H]3CC[C@]12C` [Compound 10-23], the activation at 10 µM is 10 to 50%.

Consider `C[C@H](CC(F)(F)[C@H](C)O)[C@H]1CC[C@H]2[C@@H]3CC=C4C[C@@](C)(O)CC[C@]4(C)[C@H]3CC[C@]12C` [Compound 11-15], for which the activation at 10 µM lay in the range of 10 to 50%. Next, `C[C@H](CC(F)(F)[C@@H](C)O)[C@H]1CC[C@H]2[C@@H]3CC=C4C[C@@](C)(O)CC[C@]4(C)[C@H]3CC[C@]12C` [Compound 11-16]: 10 to 50%; `C[C@H](CC(F)(F)C(C)(C)O)[C@H]1CC[C@H]2[C@@H]3CC=C4C[C@@](C)(O)CC[C@]4(C)[C@H]3CC[C@]12C` [Compound 11-19]: 10 to 50%.
